According to publication PMC9081825 (2022):

Experiments:
Assay in all cases: QD fluorescence recovery on release from amSWCNT
[1] = tested on: A08min-QDs (multi-QD mixture, nanocomplex 1) (DNA, aptamer) GGCAGTGTGGGCGAATCTATGCGTACCGTTCGATATCGTG; details: 137 mM NaCl, 2.7 mM KCl; phosphate buffer pH 7.4; tested at 1.5 μM; 530 nm
[2] = tested on: 1.12.2-RQD (nanocomplexes 4 and 5) (DNA, aptamer) GATCGGGTGTGGGTGGCGTAAAGGGAGCATCGGACA; details: 120 mM NaCl, 5 mM KCl, 10 mM CaCl2, 10 mM HEPES pH 7.0 (buffer listed for 1.12.2 in supplement)
[3] = tested on: A08min-GQD (nanocomplex 3) (DNA, aptamer) GGCAGTGTGGGCGAATCTATGCGTACCGTTCGATATCGTG; details: 137 mM NaCl, 2.7 mM KCl; phosphate buffer pH 7.4; OTA 0-1.2 μM; 525 nm; 0.12 mg/mL amSWCNT
[4] = tested on: A08min-RQD (nanocomplex 4) (DNA, aptamer) GGCAGTGTGGGCGAATCTATGCGTACCGTTCGATATCGTG; details: 137 mM NaCl, 2.7 mM KCl; phosphate buffer pH 7.4; OTA 0-1.2 μM; 650 nm; 0.12 mg/mL amSWCNT
[5] = tested on: 1.12.2-GQD (nanocomplex 3) (DNA, aptamer) GATCGGGTGTGGGTGGCGTAAAGGGAGCATCGGACA; details: 120 mM NaCl, 5 mM KCl, 10 mM CaCl2, 10 mM HEPES pH 7.0 (buffer listed for 1.12.2 in supplement)

SMILES	binding [1]	further results
CC(=O)CC(c1ccccc1)c1c(O)c2ccccc2oc1=O (centres unmarked)	no	
CCCC[C@@H](C)[C@@H](OC(=O)C[C@@H](CC(=O)O)C(=O)O)[C@H](C[C@@H](C)C[C@H](O)CCCC[C@@H](O)C[C@H](O)[C@H](C)N)OC(=O)C[C@@H](CC(=O)O)C(=O)O	no	
C[C@@H]1Cc2c(Cl)cc(C(=O)N[C@@H](Cc3ccccc3)C(=O)O)c(O)c2C(=O)O1		binding [2]: yes; binding [3]: yes; binding [4]: yes; binding [5]: yes
C[C@@H]1Cc2ccc(C(=O)N[C@@H](Cc3ccccc3)C(=O)O)c(O)c2C(=O)O1	no	
O=C1C=C2C(=CCOC2O)O1 (centres unmarked)	no	
